In PMC3257419 (Journal of Medicinal Chemistry, 2011):

Legend:
[1] = system: cocaine-induced increases in synaptic dopamine; assay: MicroPET imaging of [11C]-raclopride binding after cocaine; type: in vivo, rat; conditions: cocaine alone, average
Sprague-Dawley rats = conditions: Vigabatrin/Cocaine, vigabatrin 300 mg/kg; ref Dewey et al.[7]; cited from earlier work
[2] = system: succinic semialdehyde dehydrogenase; conditions: cited from earlier work
subjects = conditions: trial of 103 subjects, placebo 7.5%; cited from earlier work
patients = conditions: following chronic administration; cited from earlier work
alanine aminotransferase = conditions: cited from earlier work
GABA transport = conditions: cited from earlier work
white matter of the CNS = conditions: characterized as intramyelinic edema; cited from earlier work

| Compound | reduction of [11C]-raclopride binding [1] | Time in chamber (min) unpaired (Sprague-Dawley rats) | effect on succinic semialdehyde dehydrogenase activity in vivo [2] | subjects who achieved abstinence (subjects) | patients with visual field defects (VFDs) (patients) | effect on alanine aminotransferase activity in vivo (alanine aminotransferase) | implicit times of the ERGs (Wistar albino rats; CPP-115 20 mg/kg, vigabatrin 200 mg/kg) | clinical observation in the first three weeks of treatment (Wistar albino rats; CPP-115 20 mg/kg, vigabatrin 200 mg/kg daily i.p.) | 10 Hz flicker ERGs compared to both CPP-115 and controls (Wistar albino rats; both sexes, both time points, data not shown) | rod, mesopic, and cone b-wave implicit times compared to controls or CPP-115 (Wistar albino rats; females, 200 mg/kg, data not shown) | action on GABA reuptake (GABA transport) | CNS histopathological finding (white matter of the CNS) |
| --- | --- | --- | --- | --- | --- | --- | --- | --- | --- | --- | --- | --- |
| COC(=O)[C@H]1[C@@H](OC(=O)c2ccccc2)C[C@@H]2CC[C@H]1N2C [Cocaine, reference compound] | 22% |  |  |  |  |  |  |  |  |  |  |  |
| C=CC(N)CCC(=O)O (stereo not drawn) [Vigabatrin, vigabatrin] |  | 7.1 ± 0.6 min | reduce activities | 28% | 25–50% | reduce activities | little or no drug effect | sedative effects | significantly lower | significantly increased | GABA reuptake inhibitor | microvacuolization in the white matter of the CNS |
